Patent US10407409B2, “6-(5-hydroxy-1H-pyrazol-1-yl)nicotinamide inhibitors of PHD” (Takeda Pharmaceutical Company Limited, priority 2013, dated 2019)

Columns and labels:
[1] = biological target: PHD2 enzyme (residues 181-417) (Homo sapiens (Human), UniProt Q9GZT9); experiment: Inhibition of PHD enzyme (LC/MS peptide hydroxylation assay); type: biochemical; conditions: PHD2 (residues 181-417) 5 nM, 60 min pre-incubation, -log(IC50), IC50 molar
Summary of the method: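 PHD2 (5 nM final) preincubated with inhibitor 60 min at RT in 50 mM HEPES, 50 mM KCl, 0.5 mM TCEP, 2 uM FeCl2, 0.1 mg/ml BSA, pH 7.3. Reaction started with biotin-peptide (1 uM), 2-oxoglutarate (2 uM), ascorbate (1 mM), quenched at 60 min; hydroxylated product by LC/MS, reported as pIC50.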

[2] = tested on: HIF1a protein in H9c2 rat cardiomyocytes; experiment: Cell-based HIF-alpha stabilization assay (inhibition of PHD in cells); conditions: 24 hrs compound incubation, HIF1a protein by ELISA; for EC50: Rattus norvegicus, H9c2, 24 h, read-out: Inhibition of PHD in cells (pEC50) (converted)
Summary of the method: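 Rat H9c2 cardiomyocytes, cultured 24 h, were treated 24 h with an 11-point serial dilution of compound. HIF1a in whole-cell lysates was quantified by ELISA as % of the maximal desferrioxamine response. EC50 came from curve fitting; EC50pos is the concentration reaching 50% of the desferrioxamine maximum.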

PHD2 enzyme (residues 181-417), sequence (Q9GZT9 181-417): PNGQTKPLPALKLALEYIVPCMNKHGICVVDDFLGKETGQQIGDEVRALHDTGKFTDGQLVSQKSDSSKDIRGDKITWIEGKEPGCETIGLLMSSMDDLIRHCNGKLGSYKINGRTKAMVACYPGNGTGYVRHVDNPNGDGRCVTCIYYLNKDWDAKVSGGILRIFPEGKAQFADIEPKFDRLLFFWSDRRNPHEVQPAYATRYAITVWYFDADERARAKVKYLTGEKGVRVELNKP

Row | IC50 ([1]; read-out: PHD Inhibition (pIC50) (converted)) [nM] | PHD Inhibition (pIC50) [1] | SMILES | EC50 [2] [nM] | Inhibition of PHD in cells (pEC50) [2]
1 | 174 |  | COCCCNC(=O)c1ccc(-n2ncc(-c3cc(C)nc(OC)c3)c2O)nc1 [Example 214, 6-(5-hydroxy-4-(2-methoxy-6-methylpyridin-4-yl)-1H-pyrazol-1-yl)-N-(3-methoxypropyl)nicotinamide] | 2820 | 
2 |  | 7.21 | COCCC1(NC(=O)c2ccc(-n3ncc(-c4ccc(C#N)cc4C)c3O)nc2)CC1 [Example 215, 6-(4-(4-cyano-2-methylphenyl)-5-hydroxy-1H-pyrazol-1-yl)-N-(1-(2-methoxyethyl)cyclopropyl)nicotinamide] | 257 | 
3 |  | 7.1 | COCCCNC(=O)c1ccc(-n2ncc(-c3ccc(=O)n(C)c3)c2O)nc1 [Example 216, 6-(5-hydroxy-4-(1-methyl-6-oxo-1,6-dihydropyridin-3-yl)-1H-pyrazol-1-yl)-N-(3-methoxypropyl)nicotinamide] | 5250 | 
4 |  | 8.1 | COCCCNC(=O)c1ccc(-n2ncc(-c3ccc(CC#N)cc3)c2O)nc1 [Example 217, 6-(4-(4-(cyanomethyl)phenyl)-5-hydroxy-1H-pyrazol-1-yl)-N-(3-methoxypropyl)nicotinamide] | 1230 | 
5 |  | 7.9 | CCOc1cc(-c2cnn(-c3ccc(C(=O)NCCCOC)cn3)c2O)ccn1 [Example 218, 6-(4-(2-ethoxypyridin-4-yl)-5-hydroxy-1H-pyrazol-1-yl)-N-(3-methoxypropyl)nicotinamide] | 4680 | 
6 |  | 8.2 | COCCCNC(=O)c1ccc(-n2ncc(-c3ccc(CC#N)c(F)c3)c2O)nc1 [Example 219, 6-(4-(4-(cyanomethyl)-3-fluorophenyl)-5-hydroxy-1H-pyrazol-1-yl)-N-(3-methoxypropyl)nicotinamide] | 1230 | 
7 |  | 7.13 | N#Cc1ccc(-c2cnn(-c3ccc(C(=O)NCc4ccccc4)cn3)c2O)c(F)c1 [Example 220, N-benzyl-6-(4-(4-cyano-2-fluorophenyl)-5-hydroxy-1H-pyrazol-1-yl)nicotinamide] | 1070 | 
8 |  | 7.11 | N#Cc1ccc(-c2cnn(-c3ccc(C(=O)NCC4CCOCC4)cn3)c2O)c(F)c1 [Example 221, 6-(4-(4-cyano-2-fluorophenyl)-5-hydroxy-1H-pyrazol-1-yl)-N-((tetrahydro-2H-pyran-4-yl)methyl)nicotinamide] | 933 | 
9 |  | 7.25 | Cc1cc(C#N)ccc1-c1cnn(-c2ccc(C(=O)NCC3CCOCC3)cn2)c1O [Example 222, 6-(4-(4-cyano-2-methylphenyl)-5-hydroxy-1H-pyrazol-1-yl)-N-((tetrahydro-2H-pyran-4-yl)methyl)nicotinamide] | 100 | 
10 |  | 5.43 | Cc1cc(-c2cnn(-c3ccc(C(=O)NCC4CCOCC4)cn3)c2O)ccn1 [Example 223, 6-(5-hydroxy-4-(2-methylpyridin-4-yl)-1H-pyrazol-1-yl)-N-((tetrahydro-2H-pyran-4-yl)methyl)nicotinamide] | 50100 | 
11 |  | 7.56 | O=C(NCc1ccccc1)c1ccc(-n2ncc(-c3ccncc3)c2O)nc1 [Example 225, N-benzyl-6-(5-hydroxy-4-(pyridin-4-yl)-1H-pyrazol-1-yl)nicotinamide] | 2340 | 
12 |  | 7.38 | CO[C@H]1CC[C@@H](NC(=O)c2ccc(-n3ncc(-c4ccc(C#N)cc4)c3O)nc2)CC1 [Example 227, 6-(4-(4-cyanophenyl)-5-hydroxy-1H-pyrazol-1-yl)-N-((1s,4s)-4-methoxycyclohexyl)nicotinamide] | 550 | 
13 |  | 7.48 | CO[C@H]1CC[C@H](NC(=O)c2ccc(-n3ncc(-c4ccc(C#N)cc4)c3O)nc2)CC1 [Example 228, 6-(4-(4-cyanophenyl)-5-hydroxy-1H-pyrazol-1-yl)-N-((1r,4r)-4-methoxycyclohexyl)nicotinamide] |  | 6.59
14 |  | 7.62 | CO[C@H]1CC[C@H](NC(=O)c2ccc(-n3ncc(-c4ccc(C#N)cc4)c3O)nc2)CC1 [Example 229, 6-(4-(4-cyanophenyl)-5-hydroxy-1H-pyrazol-1-yl)-N-((1r,4r)-4-methoxycyclohexyl)nicotinamide] | 1050 | 
15 |  | 6.83 | COc1cc(C#N)ccc1-c1cnn(-c2ccc(C(=O)N[C@H]3CC[C@@H](OC)CC3)cn2)c1O [Example 230, 6-(4-(4-cyano-2-methoxyphenyl)-5-hydroxy-1H-pyrazol-1-yl)-N-((1s,4s)-4-methoxycyclohexyl)nicotinamide] | 407 | 
16 |  | 6.95 | COCCCNC(=O)c1ccc(-n2ncc(-c3ccc(C#N)cc3OC)c2O)nc1 [Example 231, 6-(4-(4-cyano-2-methoxyphenyl)-5-hydroxy-1H-pyrazol-1-yl)-N-(3-methoxypropyl)nicotinamide] | 372 | 
17 |  | 7.01 | COc1cc(C#N)ccc1-c1cnn(-c2ccc(C(=O)NC3CC3)cn2)c1O [Example 232, 6-(4-(4-cyano-2-methoxyphenyl)-5-hydroxy-1H-pyrazol-1-yl)-N-cyclopropylnicotinamide] | 339 | 
18 |  | 6.7 | COc1cc(-c2cnn(-c3ccc(C(=O)NC4(C5CCOCC5)CC4)cn3)c2O)ccn1 [Example 233, 6-(5-hydroxy-4-(2-methoxypyridin-4-yl)-1H-pyrazol-1-yl)-N-(1-(tetrahydro-2H-pyran-4-yl)cyclopropyl)nicotinamide] | 589 | 
19 |  | 7.12 | COCCCN(C)C(=O)c1ccc(-n2ncc(-c3ccc(C#N)cc3)c2O)nc1 [Example 234, 6-(4-(4-cyanophenyl)-5-hydroxy-1H-pyrazol-1-yl)-N-(3-methoxypropyl)-N-methylnicotinamide] | 2240 | 
20 |  | 7.43 | COCCCCNC(=O)c1ccc(-n2ncc(-c3ccc(C#N)cc3)c2O)nc1 [Example 235, 6-(4-(4-cyanophenyl)-5-hydroxy-1H-pyrazol-1-yl)-N-(4-methoxybutyl)nicotinamide] | 269 | 
21 |  | 7.51 | N#Cc1ccc(-c2cnn(-c3ccc(C(=O)NCCOC(F)(F)F)cn3)c2O)cc1 [Example 236, 6-(4-(4-cyanophenyl)-5-hydroxy-1H-pyrazol-1-yl)-N-(2-(trifluoromethoxy)ethyl)nicotinamide] | 589 | 
22 |  | 7.54 | N#Cc1ccc(-c2cnn(-c3ccc(C(=O)NC4CC5(COC5)C4)cn3)c2O)cc1 [Example 237, 6-(4-(4-cyanophenyl)-5-hydroxy-1H-pyrazol-1-yl)-N-(2-oxaspiro[3.3]heptan-6-yl)nicotinamide] | 447 | 
23 |  | 6.85 | COCCCCNC(=O)c1ccc(-n2ncc(-c3ccc(C#N)cc3OC)c2O)nc1 [Example 238, 6-(4-(4-cyano-2-methoxyphenyl)-5-hydroxy-1H-pyrazol-1-yl)-N-(4-methoxybutyl)nicotinamide] | 468 | 
24 |  | 7.12 | CN(C(=O)c1ccc(-n2ncc(-c3ccc(C#N)cc3)c2O)nc1)C1CC1 [Example 239, 6-(4-(4-cyanophenyl)-5-hydroxy-1H-pyrazol-1-yl)-N-cyclopropyl-N-methylnicotinamide] | 1700 | 
